Results as given in the NIST ThermoML archive (doi:10.1021/acs.jced.9b00419).
“And” between values parts separate entries of the source, which are not always exact repeats. Equal entries are not always repeated.

Conditions: Liquid, Transpiration method

CCCCCCC(CO)CCCC (stereo unspecified) [2-butyl-1-octanol]
Conditions	vapor or sublimation pressure [kPa]
308.1 K	0.00112
312.9 K	0.00195
317.8 K	0.00325
322.7 K	0.00526
327.6 K	0.00824
332.5 K	0.01315
337.5 K	0.02027
342.6 K	0.03024
347.6 K	0.0452
352.6 K	0.06767

CCCCCCOC(=O)CCCCC [hexanoic acid, hexyl ester]
Conditions	vapor or sublimation pressure
298.4 K	0.00313 kPa
303.2 K	0.0049 kPa
308 K	0.00732 kPa
312.8 K	0.01166 kPa and 0.01116 kPa
317.7 K	0.01667 kPa
322.6 K	0.0257 kPa
327.5 K	0.03605 kPa
332.4 K	0.05276 kPa
337.3 K	0.07541 kPa
342.3 K	0.1055 kPa
347.3 K	0.1426 kPa and 0.1453 kPa
